# According to the NIST ThermoML archive (doi:10.1016/j.fluid.2007.04.028):
# Numbers after ± are expanded uncertainties.
# Conditions: Fluid (supercritical or subcritical phases), Cylindrical cavity resonance method
smiles,measurement,setting,value
C[Si]1(C)O[Si](C)(C)O[Si](C)(C)O[Si](C)(C)O1 [octamethylcyclotetrasiloxane],speed of sound,"450 K, 38.9 kPa",110.35 ± 0.45 m/s
same,speed of sound,"450 K, 46.7 kPa",109.66 ± 0.45 m/s
same,speed of sound,"450 K, 57.41 kPa",108.8 ± 0.45 m/s
same,speed of sound,"450 K, 62.89 kPa",108.3 ± 0.45 m/s
same,speed of sound,"450 K, 69.33 kPa",107.73 ± 0.44 m/s
same,speed of sound,"465 K, 31.29 kPa",113.04 ± 0.46 m/s
same,speed of sound,"465 K, 32.63 kPa",112.99 ± 0.46 m/s
same,speed of sound,"465 K, 36.51 kPa",112.75 ± 0.46 m/s
same,speed of sound,"465 K, 40.99 kPa",112.32 ± 0.46 m/s
same,speed of sound,"465 K, 46.84 kPa",111.94 ± 0.46 m/s
same,speed of sound,"465 K, 47.85 kPa",111.91 ± 0.46 m/s
same,speed of sound,"465 K, 49.18 kPa",111.72 ± 0.46 m/s
same,speed of sound,"465 K, 57.21 kPa",111.2 ± 0.46 m/s
same,speed of sound,"465 K, 58.99 kPa",110.98 ± 0.46 m/s
same,speed of sound,"465 K, 61.46 kPa",110.82 ± 0.46 m/s
same,speed of sound,"465 K, 68.51 kPa",110.33 ± 0.45 m/s
same,speed of sound,"465 K, 70.69 kPa",110.06 ± 0.45 m/s
same,speed of sound,"465 K, 73.59 kPa",109.87 ± 0.45 m/s
same,speed of sound,"465 K, 74.87 kPa",109.83 ± 0.45 m/s
same,speed of sound,"465 K, 77.48 kPa",109.53 ± 0.45 m/s
same,speed of sound,"465 K, 81.72 kPa",109.28 ± 0.45 m/s
same,speed of sound,"465 K, 87.87 kPa",108.72 ± 0.45 m/s
same,speed of sound,"465 K, 92.89 kPa",108.29 ± 0.45 m/s
same,speed of sound,"465 K, 97.68 kPa",107.96 ± 0.44 m/s
same,speed of sound,"465 K, 101.01 kPa",107.53 ± 0.44 m/s
same,speed of sound,"465 K, 105.11 kPa",107.28 ± 0.44 m/s
same,speed of sound,"465 K, 106.95 kPa",107.18 ± 0.44 m/s
same,speed of sound,"465 K, 111.4 kPa",106.69 ± 0.44 m/s
same,speed of sound,"465 K, 116.93 kPa",106.3 ± 0.44 m/s
same,speed of sound,"465 K, 121.67 kPa",105.76 ± 0.43 m/s
same,speed of sound,"465 K, 123.48 kPa",105.66 ± 0.43 m/s
same,speed of sound,"480 K, 42.7 kPa",114.02 ± 0.47 m/s
same,speed of sound,"480 K, 54.67 kPa",113.2 ± 0.46 m/s
same,speed of sound,"480 K, 65.08 kPa",112.48 ± 0.46 m/s
same,speed of sound,"480 K, 71.3 kPa",112.04 ± 0.46 m/s
same,speed of sound,"480 K, 85.5 kPa",111.07 ± 0.46 m/s
same,speed of sound,"480 K, 92.46 kPa",110.5 ± 0.45 m/s
same,speed of sound,"480 K, 109.21 kPa",109.24 ± 0.45 m/s
same,speed of sound,"480 K, 118.88 kPa",108.49 ± 0.45 m/s
same,speed of sound,"480 K, 129.21 kPa",107.67 ± 0.44 m/s
same,speed of sound,"480 K, 140.39 kPa",106.77 ± 0.44 m/s
same,speed of sound,"480 K, 152.36 kPa",105.77 ± 0.43 m/s
same,speed of sound,"480 K, 165.42 kPa",104.64 ± 0.43 m/s
same,speed of sound,"495 K, 27.45 kPa",117.14 ± 0.48 m/s
same,speed of sound,"495 K, 36.2 kPa",116.66 ± 0.48 m/s
same,speed of sound,"495 K, 47.54 kPa",115.98 ± 0.47 m/s
same,speed of sound,"495 K, 143.41 kPa",109.74 ± 0.45 m/s
same,speed of sound,"495 K, 159.7 kPa",108.43 ± 0.45 m/s
same,speed of sound,"495 K, 160.4 kPa",108.39 ± 0.45 m/s
same,speed of sound,"495 K, 174.53 kPa",107.35 ± 0.44 m/s
same,speed of sound,"495 K, 186.64 kPa",106.44 ± 0.44 m/s
same,speed of sound,"495 K, 198.61 kPa",105.49 ± 0.43 m/s
same,speed of sound,"495 K, 224.52 kPa",103.41 ± 0.43 m/s
C[Si]1(C)O[Si](C)(C)O[Si](C)(C)O[Si](C)(C)O[Si](C)(C)O1 [decamethylcyclopentasiloxane],speed of sound,"485 K, 35.39 kPa",101.91 ± 0.52 m/s
same,speed of sound,"485 K, 43.63 kPa",101.14 ± 0.52 m/s
same,speed of sound,"485 K, 49.43 kPa",100.67 ± 0.51 m/s
same,speed of sound,"485 K, 55.24 kPa",100.36 ± 0.51 m/s
same,speed of sound,"485 K, 63.6 kPa",99.2 ± 0.51 m/s
same,speed of sound,"485 K, 64.42 kPa",99.13 ± 0.51 m/s
same,speed of sound,"485 K, 74.85 kPa",98.38 ± 0.5 m/s
same,speed of sound,"485 K, 82.92 kPa",97.28 ± 0.5 m/s
same,speed of sound,"485 K, 85.12 kPa",97.17 ± 0.5 m/s
same,speed of sound,"500 K, 22.13 kPa",104.94 ± 0.53 m/s
same,speed of sound,"500 K, 22.48 kPa",104.92 ± 0.53 m/s
same,speed of sound,"500 K, 26.3 kPa",104.68 ± 0.53 m/s
same,speed of sound,"500 K, 31.33 kPa",104.22 ± 0.53 m/s
same,speed of sound,"500 K, 32.27 kPa",104.14 ± 0.53 m/s
same,speed of sound,"500 K, 33.93 kPa",103.96 ± 0.53 m/s
same,speed of sound,"500 K, 39.9 kPa",103.53 ± 0.53 m/s
same,speed of sound,"500 K, 42.7 kPa",103.27 ± 0.53 m/s
same,speed of sound,"500 K, 47.88 kPa",102.87 ± 0.52 m/s
same,speed of sound,"500 K, 51.58 kPa",102.58 ± 0.52 m/s
same,speed of sound,"500 K, 55.42 kPa",102.2 ± 0.52 m/s
same,speed of sound,"500 K, 64.64 kPa",101.5 ± 0.52 m/s
same,speed of sound,"500 K, 64.96 kPa",101.44 ± 0.52 m/s
same,speed of sound,"500 K, 73.64 kPa",100.81 ± 0.51 m/s
same,speed of sound,"500 K, 74.95 kPa",100.63 ± 0.51 m/s
same,speed of sound,"500 K, 78.98 kPa",100.22 ± 0.51 m/s
same,speed of sound,"500 K, 85.9 kPa",99.5 ± 0.51 m/s
same,speed of sound,"500 K, 95.37 kPa",98.56 ± 0.5 m/s
same,speed of sound,"500 K, 105.42 kPa",97.6 ± 0.5 m/s
same,speed of sound,"500 K, 116.6 kPa",96.56 ± 0.49 m/s
same,speed of sound,"510 K, 34.55 kPa",105.2 ± 0.54 m/s
same,speed of sound,"510 K, 43.26 kPa",104.68 ± 0.53 m/s
same,speed of sound,"510 K, 51.27 kPa",104.86 ± 0.53 m/s
same,speed of sound,"510 K, 57.1 kPa",103.49 ± 0.53 m/s
same,speed of sound,"510 K, 62.78 kPa",103.98 ± 0.53 m/s
same,speed of sound,"510 K, 72.53 kPa",102.37 ± 0.52 m/s
same,speed of sound,"510 K, 82.51 kPa",101.58 ± 0.52 m/s
same,speed of sound,"510 K, 89.89 kPa",100.87 ± 0.52 m/s
same,speed of sound,"510 K, 92.75 kPa",100.75 ± 0.51 m/s
same,speed of sound,"510 K, 103.28 kPa",99.89 ± 0.51 m/s
same,speed of sound,"510 K, 110.69 kPa",99.98 ± 0.51 m/s
